Experiments:
Assay in all cases: relative viability (nuclei count vs DMSO), 5 days (fraction); higher = more cells survive
NCI-H1395 = system: NCI-H1395
How it was run: (§1)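 Relative viability was taken as the ratio of nuclei in treated wells to nuclei in vehicle wells. Lung cancer cell lines in 1536-well plates received compounds by pin tool one day after seeding, either one drug alone or a fixed anchor-drug dose plus five library-drug doses (not always all listed) in √10 steps. Nuclei were counted on 4× images after 5 days of treatment, and values are medians of duplicate plates.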

NCI-H1993 = system: NCI-H1993
How it was run: as §1

NCI-H2170 = system: NCI-H2170
How it was run: as §1

NCI-H3122 = system: NCI-H3122
How it was run: as §1

HOP-62 = system: HOP-62
How it was run: as §1

NCI-H2342 = system: NCI-H2342
How it was run: as §1

NCI-H2085 = system: NCI-H2085
How it was run: as §1

ChaGo-K-1 = system: ChaGo-K-1
How it was run: as §1

LCLC-97TM1 = system: LCLC-97TM1
How it was run: as §1

NCI-H2126 = system: NCI-H2126
How it was run: as §1

NCI-H1975 = system: NCI-H1975
How it was run: as §1

LCLC-103H = system: LCLC-103H
How it was run: as §1

NCI-H647 = system: NCI-H647
How it was run: as §1

LOU-NH91 = system: LOU-NH91
How it was run: as §1

NCI-H2405 = system: NCI-H2405
How it was run: as §1

HCC-44 = system: HCC-44
How it was run: as §1

EMC-BAC-2 = system: EMC-BAC-2
How it was run: as §1

EPLC-272H = system: EPLC-272H
How it was run: as §1

NCI-H460 = system: NCI-H460
How it was run: as §1

NCI-H322M = system: NCI-H322M
How it was run: as §1

Work on C=C1C(=O)O[C@@H](CCCCCCCC)[C@@H]1C(=O)O [C-75] + NC(=O)Nc1cc(-c2cccc(F)c2)sc1C(=O)N[C@H]1CCCNC1 [AZD7762] (partner 0.2 µM) yielded a relative viability (NCI-H1395; first compound 0.08 µM) of 0.358, a relative viability (NCI-H1395; first compound 0.253 µM) of 0.386 and a relative viability (NCI-H1395; first compound 2.53 µM) of 0.4. The relative viability (NCI-H1395; first compound 8 µM) was 0.413, the relative viability (NCI-H1993; first compound 0.08 µM) was 0.959 and the relative viability (NCI-H1993; first compound 0.253 µM) was 0.998. For the same molecule, the relative viability (NCI-H1993; first compound 0.8 µM) was 0.772, the relative viability (NCI-H1993; first compound 2.53 µM) was 0.687 and the relative viability (NCI-H1993; first compound 8 µM) was 0.685. The relative viability (NCI-H2170; first compound 0.08 µM) was 0.945, the relative viability (NCI-H2170; first compound 0.253 µM) was 1.1 and the relative viability (NCI-H2170; first compound 0.8 µM) was 0.858. The relative viability (NCI-H2170; first compound 2.53 µM) was 0.737, the relative viability (NCI-H2170; first compound 8 µM) was 0.887 and the relative viability (NCI-H3122; first compound 0.08 µM) was 1.03. It also gave a relative viability (NCI-H3122; first compound 0.253 µM) of 1.09, a relative viability (NCI-H3122; first compound 0.8 µM) of 0.951 and a relative viability (NCI-H3122; first compound 2.53 µM) of 0.883. The relative viability (NCI-H3122; first compound 8 µM) was 1.03, the relative viability (HOP-62; first compound 0.08 µM) was 0.592 and the relative viability (HOP-62; first compound 0.253 µM) was 1.09. It also gave a relative viability (HOP-62; first compound 0.8 µM) of 0.522, a relative viability (HOP-62; first compound 2.53 µM) of 0.657 and a relative viability (HOP-62; first compound 8 µM) of 0.91. The relative viability (NCI-H2342; first compound 0.08 µM) was 0.569, the relative viability (NCI-H2342; first compound 0.253 µM) was 0.562 and the relative viability (NCI-H2342; first compound 0.8 µM) was 0.45. It also gave a relative viability (NCI-H2342; first compound 2.53 µM) of 0.458, a relative viability (NCI-H2342; first compound 8 µM) of 0.505 and a relative viability (NCI-H2085; first compound 0.08 µM) of 0.95. The relative viability (NCI-H2085; first compound 0.253 µM) was 1.09, the relative viability (NCI-H2085; first compound 0.8 µM) was 0.919 and the relative viability (NCI-H2085; first compound 2.53 µM) was 0.943. The relative viability (NCI-H2085; first compound 8 µM) was 1, the relative viability (ChaGo-K-1; first compound 0.08 µM) was 0.857 and the relative viability (ChaGo-K-1; first compound 0.253 µM) was 0.921. For the same molecule, the relative viability (ChaGo-K-1; first compound 0.8 µM) was 0.777, the relative viability (ChaGo-K-1; first compound 2.53 µM) was 0.603 and the relative viability (ChaGo-K-1; first compound 8 µM) was 0.812. For the same molecule, the relative viability (LCLC-97TM1; first compound 0.08 µM) was 0.248, the relative viability (LCLC-97TM1; first compound 0.253 µM) was 0.581 and the relative viability (LCLC-97TM1; first compound 0.8 µM) was 0.218. It also gave a relative viability (LCLC-97TM1; first compound 2.53 µM) of 0.254, a relative viability (LCLC-97TM1; first compound 8 µM) of 0.833 and a relative viability (NCI-H2126; first compound 0.08 µM) of 0.953. For the same molecule, the relative viability (NCI-H2126; first compound 0.253 µM) was 1.13, the relative viability (NCI-H2126; first compound 0.8 µM) was 0.965 and the relative viability (NCI-H2126; first compound 2.53 µM) was 0.886. The relative viability (NCI-H2126; first compound 8 µM) was 1.01, the relative viability (NCI-H1975; first compound 0.08 µM) was 0.771 and the relative viability (NCI-H1975; first compound 0.253 µM) was 0.556. It also gave a relative viability (NCI-H1975; first compound 0.8 µM) of 0.623, a relative viability (NCI-H1975; first compound 2.53 µM) of 0.667 and a relative viability (NCI-H1975; first compound 8 µM) of 0.78. The relative viability (LCLC-103H; first compound 0.08 µM) was 0.809, the relative viability (LCLC-103H; first compound 0.253 µM) was 0.619 and the relative viability (LCLC-103H; first compound 0.8 µM) was 0.695. It also gave a relative viability (LCLC-103H; first compound 2.53 µM) of 0.654, a relative viability (LCLC-103H; first compound 8 µM) of 0.814 and a relative viability (NCI-H647; first compound 0.08 µM) of 0.412. It also gave a relative viability (NCI-H647; first compound 0.253 µM) of 0.405, a relative viability (NCI-H647; first compound 0.8 µM) of 0.329 and a relative viability (NCI-H647; first compound 2.53 µM) of 0.444. It also gave a relative viability (NCI-H647; first compound 8 µM) of 0.373, a relative viability (LOU-NH91; first compound 0.08 µM) of 0.739 and a relative viability (LOU-NH91; first compound 0.253 µM) of 0.704. The relative viability (LOU-NH91; first compound 0.8 µM) was 0.684, the relative viability (LOU-NH91; first compound 8 µM) was 0.818 and the relative viability (NCI-H2405; first compound 0.08 µM) was 0.689. For the same molecule, the relative viability (NCI-H2405; first compound 0.253 µM) was 0.4, the relative viability (NCI-H2405; first compound 0.8 µM) was 0.831 and the relative viability (NCI-H2405; first compound 2.53 µM) was 0.67. It also gave a relative viability (NCI-H2405; first compound 8 µM) of 0.764, a relative viability (HCC-44; first compound 0.08 µM) of 1.03 and a relative viability (HCC-44; first compound 0.253 µM) of 1.05. For the same molecule, the relative viability (HCC-44; first compound 0.8 µM) was 0.999, the relative viability (HCC-44; first compound 2.53 µM) was 0.953 and the relative viability (HCC-44; first compound 8 µM) was 1.08. It also gave a relative viability (EMC-BAC-2; first compound 0.08 µM) of 1.1, a relative viability (EMC-BAC-2; first compound 0.253 µM) of 1.04 and a relative viability (EMC-BAC-2; first compound 0.8 µM) of 1.06. It also gave a relative viability (EMC-BAC-2; first compound 2.53 µM) of 0.887, a relative viability (EMC-BAC-2; first compound 8 µM) of 1.07 and a relative viability (EPLC-272H; first compound 0.08 µM) of 0.23. The relative viability (EPLC-272H; first compound 0.253 µM) was 0.257, the relative viability (EPLC-272H; first compound 0.8 µM) was 0.188 and the relative viability (EPLC-272H; first compound 2.53 µM) was 0.196. The relative viability (EPLC-272H; first compound 8 µM) was 0.266, the relative viability (NCI-H460; first compound 0.08 µM) was 0.685 and the relative viability (NCI-H460; first compound 0.253 µM) was 0.805. The relative viability (NCI-H460; first compound 0.8 µM) was 0.595, the relative viability (NCI-H460; first compound 2.53 µM) was 0.555 and the relative viability (NCI-H460; first compound 8 µM) was 0.706. The relative viability (NCI-H322M; first compound 0.08 µM) was 0.587, the relative viability (NCI-H322M; first compound 0.253 µM) was 0.684 and the relative viability (NCI-H322M; first compound 0.8 µM) was 0.552. It also gave a relative viability (NCI-H322M; first compound 8 µM) of 0.587.

— the supplement of paper PMC10307832
